From EP0056458B1, “Nitrosourea derivatives, a process for preparing same and therapeutic compositions” (Tanabe Seiyaku Co., Ltd., priority 1981, dated 1982)
Marks after values point to notes of the source that are not given here.

Assays:
tumor = test: Anti-tumor activity compared with a compound of the invention (no method given); conditions: compared with a respective comparative compound according to the invention
[1] = test system: Ehrlich ascites carcinoma; test: Preventive effect against the growth of Ehrlich ascites tumor (method A); assay type: in vivo, mice; conditions: for Therapeutic index: M. T. D./M. E. D.; for inhibition in vivo at 3.12 mg/kg/day: dose 3.12 mg/kg/day i.p. x 5 days; for inhibition in vivo at 6.25 mg/kg/day: dose 6.25 mg/kg/day i.p. x 5 days; for inhibition in vivo at 12.5 mg/kg/day: dose 12.5 mg/kg/day i.p. x 5 days; for minimal effective dose: minimum effective dose which shows 100% inhibition for the growth of the ascites tumor, dose column in mg/kg/day, read-out: MED; for Toxic: group of five mice; for inhibition in vivo at 0.19 mg/kg/day: dose 0.19 mg/kg/day i.p. x 5 days; for inhibition in vivo at 0.39 mg/kg/day: dose 0.39 mg/kg/day i.p. x 5 days; for inhibition in vivo at 0.78 mg/kg/day: dose 0.78 mg/kg/day i.p. x 5 days; for inhibition in vivo at 0.097 mg/kg/day: dose 0.097 mg/kg/day i.p. x 5 days; for inhibition in vivo at 0.195 mg/kg/day: dose 0.195 mg/kg/day i.p. x 5 days; for inhibition in vivo at 1.56 mg/kg/day: dose 1.56 mg/kg/day i.p. x 5 days
Procedure: (§1) (A) Preventive effect against the growth of Ehrlich ascites tumor:
(§2) 10^6 tumor cells of Ehrlich ascites carcinoma were inoculated intraperitoneally into a group of five female mice (ICR mice, body weight: 19-23 g). A test compound was dissolved in a physiological saline solution. (In the case where CCNU was employed as the test compound, said compound was suspended in a physiological saline solution containing 0.1% NIKKOL HCO-60 (trademark; a surface active agent manufactured by Nikko Chemicals Co. Ltd.)) and administered intraperitoneally to the mice. The administration of the test compound was begun 24 hours after the inoculation of the tumor cells and performed once a day for 5 days. The volume of ascites in the treated mice were measured after 7 days of the experiment.

[2] = as above; assay type: in vivo, mice; conditions: mouse, in vivo, ip; Maximum Tolerated Dose: maximum dose with 100% inhibition of Ehrlich ascites tumor growth without death of mice; dose column in mg/kg/day
Procedure: as §1, §2

leukemic cells of L-1210 = test: Effect on the life span of mice implanted with leukemic cells of L-1210 (method B); assay type: in vivo; conditions: for ILS (%): Increase in Life Span; for 60-day survivors: mice survived for 60 days/mice used
Procedure: (B) Effect on the life span of mice implanted with leukemic cells of L-1210:
10^5 leukemic cells of L-1210were inoculated intraperitoneally into a group of four male mice (BDF1 mice, body weight: 19-23 g). A test compound was dissolved in a physiological saline solution and administered intraperitoneally to the mice. The administration of the test compound was begun 24 hours after the inoculation of the leukemic cells and performed once a day for 5 days. The survival days of the treated mice were observed.

[3] = Mus musculus, Ehrlich, ip, 168 h, read-out: Inhibition ratio (%)
[4] = Mus musculus, Ehrlich, ip, 168 h, dose 50 mg/kg/day i.p. x 5 days, read-out: Inhibition ratio (%)
[5] = Mus musculus, Ehrlich, ip, 168 h
[6] = dose 100 mg/kg/day i.p. x 5 days
[7] = dose 6.25 mg/kg/day i.p. x 5 days
[8] = dose 12.5 mg/kg/day i.p. x 5 days
[9] = dose 25 mg/kg/day i.p. x 5 days
[10] = T (treated mice), dose 6.25 mg/kg/day i.p. x 5 days
[11] = T (treated mice), dose 12.5 mg/kg/day i.p. x 5 days
[12] = T (treated mice; figure after the slash is untreated control C), dose 25 mg/kg/day i.p. x 5 days
[13] = Mus musculus, Ehrlich, ip, 168 h, dose 25 mg/kg/day i.p. x 5 days, read-out: Inhibition ratio (%)
[14] = dose 50 mg/kg/day i.p. x 5 days
[15] = dose 3.12 mg/kg/day i.p. x 5 days
[16] = T (treated mice), dose 3.12 mg/kg/day i.p. x 5 days
[17] = dose 1.56 mg/kg/day i.p. x 5 days

SMILES	Therapeutic index [1]	inhibition in vivo at 3.12 mg/kg/day [1, 3]	inhibition in vivo at 6.25 mg/kg/day [1, 3]	inhibition in vivo at 12.5 mg/kg/day [1, 3]	minimal effective dose [1, 5]	inhibition in vivo at 0.39 mg/kg/day [1, 3]	inhibition in vivo at 0.78 mg/kg/day [1, 3]	MTD at 168 h [2]	ILS (%) (leukemic cells of L-1210; [7])	ILS (%) (leukemic cells of L-1210; [8])	Mean survival days (T/C) (leukemic cells of L-1210; [10])	Mean survival days (T/C) (leukemic cells of L-1210; [11])	60-day survivors (leukemic cells of L-1210; [7])	60-day survivors (leukemic cells of L-1210; [8])	inhibition in vivo at 0.097 mg/kg/day [1, 3]	inhibition in vivo at 0.195 mg/kg/day [1, 3]	inhibition in vivo at 1.56 mg/kg/day [1, 3]	inhibition in vivo at 25 mg/kg/day [1, 13]	Toxic [1, 14]	other results
O=C(NCCCl)N[C@H]1[C@H](O)[C@@H](CO)OC(O)[C@@H]1O (stereo partly drawn) [3 - [3 - (2 - chloroethyl)ureido] - 3 - deoxy - D - glucopyranose]																				anti-tumor activity (tumor): lower anti-tumor activity
O=NN(CCCl)C(=O)NC1CCCCC1 [CCNU, 1-(2-chloroethyl)-1-nitroso-3-cyclohexylurea, reference compound]	4	21.1%	33.3%	100%	12.5 mg/kg/day															inhibition in vivo at 50 mg/kg/day [1, 4]: 100%; Toxic [1, 6]: Toxic (5/5)*
CCCCN(C(=O)N(CCCl)N=O)[C@@H]1[C@@H](O)[C@@H](OC)O[C@H](CO)[C@H]1O [Compound 1, 1 - (2 - chloroethyl) - 1 - nitroso - 3 - n - butyl - 3 - (methyl 3 - deoxy - a - D - glucopyranosid - 3 - yl)urea]	64	100%		100%	0.78 mg/kg/day	59.5%	100%	50 mg/kg/day	111.3%	>745.1%	15.0/7.1 days	>60.0/7.1 days	0/4	4/4						inhibition in vivo at 0.19 mg/kg/day [1, 3]: 14.3%; inhibition in vivo at 50 mg/kg/day [1, 4]: 100%; Toxic [1, 6]: Toxic (4/5)*; ILS (%) (leukemic cells of L-1210; [9]): >745.1%; Mean survival days (T/C) (leukemic cells of L-1210; [12]): >60.0/7.1 days; 60-day survivors (leukemic cells of L-1210; [9]): 4/4
CO[C@H]1O[C@H](CO)[C@@H](O)[C@H](N(CC(C)C)C(=O)N(CCCl)N=O)[C@H]1O [Compound 2, 1 - (2 - chloroethyl) - 1 - nitroso - 3 - isobutyl - 3 - (methyl 3 - deoxy - a - D - glucopyranosid - 3 - yl)urea]	128		100%		0.195 mg/kg/day	100%		25 mg/kg/day	>597.7%	>597.7%	>60.0/8.6 days	>60.0/8.6 days	4/4	4/4	8.1%	100%	100%	100%	Toxic (1/5)*	ILS (%) (leukemic cells of L-1210; [15]): 57.0%; Mean survival days (T/C) (leukemic cells of L-1210; [16]): 13.5/8.6 days; 60-day survivors (leukemic cells of L-1210; [15]): 0/4
CO[C@H]1O[C@H](CO)[C@@H](O)[C@H](N(C)C(=O)N(CCCl)N=O)[C@H]1O [Compound 3, 1 - (2 - chloroethyl) - 1 - nitroso - 3 - methyl - 3 - (methyl 3 - deoxy - a - D - glucopyranosid - 3 - yl)urea]	64		100%		0.39 mg/kg/day	100%		25 mg/kg/day	>614.3%	>614.3%	>60.0/8.4 days	>60.0/8.4 days	4/4	4/4	2.7%	81.1%	100%	100%	Toxic (1/5)*	ILS (%) (leukemic cells of L-1210; [17]): 70.2%; ILS (%) (leukemic cells of L-1210; [15]): >361.9%; Mean survival days (T/C) (leukemic cells of L-1210; T (treated mice), dose 1.56 mg/kg/day i.p. x 5 days): 14.3/8.4 days; Mean survival days (T/C) (leukemic cells of L-1210; [16]): >38.8/8.4 days; increase in the average life span (leukemic cells of L-1210; daily dose of 0.26 mg/kg intraperitoneally for five consecutive days): about 30%; 60-day survivors (leukemic cells of L-1210; [17]): 0/4; 60-day survivors (leukemic cells of L-1210; [15]): 2/4
C=CCN(C(=O)N(CCCl)N=O)[C@@H]1[C@@H](O)[C@@H](OC)O[C@H](CO)[C@H]1O [Compound 4, 1 - (2 - chloroethyl) -1 - nitroso - 3 - allyl - 3 - (methyl 3 - deoxy - α - D - glucopyranosid - 3 - yl)urea]	128		100%		0.195 mg/kg/day	100%		25 mg/kg/day	80.2%	>597.7%	15.5/8.6 days	>60.0/8.6 days	0/4	4/4	29.7%	100%	100%	100%	Toxic (3/5)*	ILS (%) (leukemic cells of L-1210; [9]): >496.5%; Mean survival days (T/C) (leukemic cells of L-1210; [12]): >51.3/8.6 days; 60-day survivors (leukemic cells of L-1210; [9]): 3/4
C#CCN(C(=O)N(CCCl)N=O)[C@@H]1[C@@H](O)[C@@H](OC)O[C@H](CO)[C@H]1O [Compound 5, 1 - (2 - chloroethyl) - 1 - nitroso - 3 - propargyl - 3 - (methyl 3 - deoxy - a - D - glucopyranosid - 3 - yl)urea]	32		100%		0.78 mg/kg/day	35.1%	100%	25 mg/kg/day									100%	100%	Toxic (1/5)*	
COCCN(C(=O)N(CCCl)N=O)[C@@H]1[C@@H](O)[C@@H](OC)O[C@H](CO)[C@H]1O [Compound 6, 1 - (2 - chloroethyl) - 1 - nitroso - 3 - (2 - methoxyethyl) - 3 - (methyl 3 - deoxy - a - D - glucopyranosid - 3 - yl)urea]	128		100%		0.195 mg/kg/day	100%		25 mg/kg/day							0%	100%	100%	100%	Toxic (2/5)*	
O=NN(CCCl)C(=O)N[C@@H]1O[C@H](CO)[C@@H](O)[C@H](O)[C@H]1O [GANU, 1-(2-chloroethyl)-1-nitroso-3-β-(D-glucopyranosyl)urea, reference compound]	32	100%		100%	0.39 mg/kg/day	100%	100%	12.5 mg/kg/day												inhibition in vivo at 0.09 mg/kg/day ([1]; Mus musculus, Ehrlich, ip, 168 h, dose 0.09 mg/kg/day i.p. x 5 days, read-out: Inhibition ratio (%)): 4.2%; inhibition in vivo at 0.19 mg/kg/day [1, 3]: 79.2%; Toxic [1, 9]: Toxic (5/5)*
